Assay results taken from patent publication US6355799B1, “Substituted benzene compounds, process for their preparation, and herbicidal and defoliant compositions containing them” (ISK Americas Incorporated, priority 1997, dated 2002).

Legend:
Type in all cases: in vivo
[1] = test system: redroot pigweed (Amaranthus retroflexus, AMARE); assay: Pre-emerge test, greenhouse herbicide activity screening; details: rated 14 days after application, 0 = no damage, 100 = complete death
How it was run: (§1)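 Visual ratings on a 0-100 scale (0 no damage, 100 all plants dead) were taken at 14 days after treatment. Rates of 15-1000 g ai/ha in acetone, 187 l/ha, were sprayed onto soil one day after planting (pre-emerge) or onto 2-3 leaf plants with 0.25% v/v surfactant (post-emerge).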

[2] = test system: field corn (Zea mays L., var. Dekalb 535, CORN); assay: Post-emerge test, crop safety; details: post-emerge, 14 days after application, rating scale 0-100
How it was run: as §1

[3] = test system: upland rice (Oryza sp., var. Tebonnet, RICE); assay: Post-emerge test, crop safety; details: post-emerge, 14 days after application, rating scale 0-100
How it was run: as §1

[4] = test system: field corn (Zea mays L., var. Dekalb 535, CORN); assay: Pre-emerge test, crop safety; details: rated 14 days after application, 0 = no damage, 100 = complete death
How it was run: (§2)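 Rating: 0–100 visual injury, 14 DAA. Application: acetone, 187 l/ha, 15–1000 g ai/ha, flat-fan track sprayer with nozzle 40–45 cm above soil or canopy. Post-emerge runs used 0.25% v/v surfactant on 2–3 leaf plants.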

[5] = test system: upland rice (Oryza sp., var. Tebonnet, RICE); assay: Pre-emerge test, crop safety; details: rated 14 days after application, 0 = no damage, 100 = complete death
How it was run: as §2

[6] = test system: common ragweed (Ambrosia artemisizfolia L., AMBEL); assay: Pre-emerge test, greenhouse herbicide activity screening; details: rated 14 days after application, 0 = no damage, 100 = complete death
How it was run: as §1

[7] = test system: green foxtail (Setaria viridis, SETVI); assay: as above; details: rated 14 days after application, 0 = no damage, 100 = complete death
How it was run: as §1

[8] = test system: lambsquarters (Chenopodium album, CHEAL); assay: as above; details: rated 14 days after application, 0 = no damage, 100 = complete death
How it was run: as §1

[9] = test system: ivyleaf morningglory (Ipomoea hederacea, IPOHE); assay: as above; details: rated 14 days after application, 0 = no damage, 100 = complete death
How it was run: as §1

[10] = test system: large crabgrass (Digitaria sanguinalis, DIGSA); assay: as above; details: rated 14 days after application, 0 = no damage, 100 = complete death
How it was run: as §1

[11] = test system: johnsongrass (Sorghum halepense, SORHA); assay: as above; details: rated 14 days after application, 0 = no damage, 100 = complete death
How it was run: as §1

[12] = test system: sicklepod (Cassia obtusifolia, CASOB); assay: as above; details: rated 14 days after application, 0 = no damage, 100 = complete death
How it was run: as §1

[13] = test system: velvetleaf (Abutilon theophrasti, ABUTH); assay: as above; details: rated 14 days after application, 0 = no damage, 100 = complete death
How it was run: as §1

[14] = test system: barnyardgrass (Echinochloa crus-galli, ECHCG); assay: as above; details: rated 14 days after application, 0 = no damage, 100 = complete death
How it was run: as §1

[15] = test system: common ragweed (Ambrosia artemisizfolia L., AMBEL); assay: Post-emerge test, greenhouse herbicide activity screening; details: post-emerge, 14 days after application, rating scale 0-100
How it was run: (§3)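 Herbicidal damage is scored 0 (none) to 100 (complete plant death) two weeks after a simulated field spray. Rates span 15–1000 g ai/ha, delivered in acetone at 187 l/ha. For post-emergence treatments, plants have 2–3 leaves and the spray carries 0.25% v/v non-ionic surfactant.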

[16] = test system: green foxtail (Setaria viridis, SETVI); assay: as above; details: post-emerge, 14 days after application, rating scale 0-100
How it was run: as §3

[17] = test system: lambsquarters (Chenopodium album, CHEAL); assay: as above; details: post-emerge, 14 days after application, rating scale 0-100
How it was run: as §3

[18] = test system: ivyleaf morningglory (Ipomoea hederacea, IPOHE); assay: as above; details: post-emerge, 14 days after application, rating scale 0-100
How it was run: as §3

[19] = test system: large crabgrass (Digitaria sanguinalis, DIGSA); assay: as above; details: post-emerge, 14 days after application, rating scale 0-100
How it was run: as §3

[20] = test system: redroot pigweed (Amaranthus retroflexus, AMARE); assay: as above; details: post-emerge, 14 days after application, rating scale 0-100
How it was run: as §3

[21] = test system: johnsongrass (Sorghum halepense, SORHA); assay: as above; details: post-emerge, 14 days after application, rating scale 0-100
How it was run: as §3

[22] = test system: sicklepod (Cassia obtusifolia, CASOB); assay: as above; details: post-emerge, 14 days after application, rating scale 0-100
How it was run: as §3

[23] = test system: velvetleaf (Abutilon theophrasti, ABUTH); assay: as above; details: post-emerge, 14 days after application, rating scale 0-100
How it was run: as §3

[24] = test system: barnyardgrass (Echinochloa crus-galli, ECHCG); assay: as above; details: post-emerge, 14 days after application, rating scale 0-100
How it was run: as §3

COc1c(Cl)cc(F)c(-n2c(=O)cc(C(F)(F)F)n(C)c2=O)c1NC(=O)c1cc([N+](=O)[O-])cc([N+](=O)[O-])c1 [2-70]
50: phytotoxicity rating CHEAL ([17]; 63 g ai/ha)
100: Pre-emerge Herbicidal Activity, phytotoxicity rating (0-100), AMARE ([1]; 250 g ai/ha) | Pre-emerge Herbicidal Activity, phytotoxicity rating (0-100), CHEAL ([8]; 250 g ai/ha) | Pre-emerge Herbicidal Activity, phytotoxicity rating (0-100), ABUTH ([13]; 63 g ai/ha) | phytotoxicity rating ABUTH ([23]; 63 g ai/ha) | phytotoxicity rating ABUTH ([23]; 250 g ai/ha)
70: Pre-emerge Herbicidal Activity, phytotoxicity rating (0-100), AMARE ([1]; 63 g ai/ha) | phytotoxicity rating CHEAL ([17]; 250 g ai/ha) | phytotoxicity rating AMARE ([20]; 63 g ai/ha) | phytotoxicity rating AMARE ([20]; 250 g ai/ha)
30: Pre-emerge Herbicidal Activity, phytotoxicity rating (0-100), AMBEL ([6]; 250 g ai/ha) | phytotoxicity rating AMBEL ([15]; 63 g ai/ha) | phytotoxicity rating AMBEL ([15]; 250 g ai/ha)
80: Pre-emerge Herbicidal Activity, phytotoxicity rating (0-100), CHEAL ([8]; 63 g ai/ha)
10: Pre-emerge phytotoxicity rating (0-100), crop damage, RICE ([5]; 250 g ai/ha) | phytotoxicity rating CASOB ([22]; 63 g ai/ha)
90: Pre-emerge Herbicidal Activity, phytotoxicity rating (0-100), ABUTH ([13]; 250 g ai/ha)
60: Pre-emerge Herbicidal Activity, phytotoxicity rating (0-100), SETVI ([7]; 250 g ai/ha) | Pre-emerge Herbicidal Activity, phytotoxicity rating (0-100), IPOHE ([9]; 250 g ai/ha) | phytotoxicity rating IPOHE ([18]; 63 g ai/ha) | phytotoxicity rating IPOHE ([18]; 250 g ai/ha)
20: Pre-emerge Herbicidal Activity, phytotoxicity rating (0-100), DIGSA ([10]; 250 g ai/ha) | phytotoxicity rating SETVI ([16]; 63 g ai/ha) | phytotoxicity rating CASOB ([22]; 250 g ai/ha)
0: phytotoxicity rating CORN ([2]; 63 g ai/ha) | phytotoxicity rating CORN ([2]; 250 g ai/ha) | phytotoxicity rating RICE ([3]; 63 g ai/ha) | phytotoxicity rating RICE ([3]; 250 g ai/ha) | Pre-emerge phytotoxicity rating (0-100), crop damage, CORN ([4]; 63 g ai/ha) | Pre-emerge phytotoxicity rating (0-100), crop damage, CORN ([4]; 250 g ai/ha) | Pre-emerge phytotoxicity rating (0-100), crop damage, RICE ([5]; 63 g ai/ha) | Pre-emerge Herbicidal Activity, phytotoxicity rating (0-100), AMBEL ([6]; 63 g ai/ha) | Pre-emerge Herbicidal Activity, phytotoxicity rating (0-100), SETVI ([7]; 63 g ai/ha) | Pre-emerge Herbicidal Activity, phytotoxicity rating (0-100), IPOHE ([9]; 63 g ai/ha) | Pre-emerge Herbicidal Activity, phytotoxicity rating (0-100), DIGSA ([10]; 63 g ai/ha) | Pre-emerge Herbicidal Activity, phytotoxicity rating (0-100), SORHA ([11]; 63 g ai/ha) | Pre-emerge Herbicidal Activity, phytotoxicity rating (0-100), SORHA ([11]; 250 g ai/ha) | Pre-emerge Herbicidal Activity, phytotoxicity rating (0-100), CASOB ([12]; 63 g ai/ha) | Pre-emerge Herbicidal Activity, phytotoxicity rating (0-100), ECHCG ([14]; 63 g ai/ha) | Pre-emerge Herbicidal Activity, phytotoxicity rating (0-100), ECHCG ([14]; 250 g ai/ha) | phytotoxicity rating SETVI ([16]; 250 g ai/ha) | phytotoxicity rating DIGSA ([19]; 63 g ai/ha) | phytotoxicity rating DIGSA ([19]; 250 g ai/ha) | phytotoxicity rating SORHA ([21]; 63 g ai/ha) | phytotoxicity rating SORHA ([21]; 250 g ai/ha) | phytotoxicity rating ECHCG ([24]; 63 g ai/ha) | phytotoxicity rating ECHCG ([24]; 250 g ai/ha)
40: Pre-emerge Herbicidal Activity, phytotoxicity rating (0-100), CASOB ([12]; 250 g ai/ha)

COc1c(Cl)cc(F)c(-n2c(=O)cc(C(F)(F)F)n(C)c2=O)c1N(C(=O)c1ccc(Cl)nc1)C(=O)c1ccc(Cl)nc1 [2-100]
100: Pre-emerge Herbicidal Activity, phytotoxicity rating (0-100), AMARE ([1]; 63 g ai/ha) | Pre-emerge Herbicidal Activity, phytotoxicity rating (0-100), AMARE ([1]; 250 g ai/ha) | Pre-emerge Herbicidal Activity, phytotoxicity rating (0-100), AMBEL ([6]; 250 g ai/ha) | Pre-emerge Herbicidal Activity, phytotoxicity rating (0-100), SETVI ([7]; 63 g ai/ha) | Pre-emerge Herbicidal Activity, phytotoxicity rating (0-100), SETVI ([7]; 250 g ai/ha) | Pre-emerge Herbicidal Activity, phytotoxicity rating (0-100), CHEAL ([8]; 63 g ai/ha) | Pre-emerge Herbicidal Activity, phytotoxicity rating (0-100), CHEAL ([8]; 250 g ai/ha) | Pre-emerge Herbicidal Activity, phytotoxicity rating (0-100), IPOHE ([9]; 63 g ai/ha) | Pre-emerge Herbicidal Activity, phytotoxicity rating (0-100), IPOHE ([9]; 250 g ai/ha) | Pre-emerge Herbicidal Activity, phytotoxicity rating (0-100), DIGSA ([10]; 250 g ai/ha) | Pre-emerge Herbicidal Activity, phytotoxicity rating (0-100), SORHA ([11]; 250 g ai/ha) | Pre-emerge Herbicidal Activity, phytotoxicity rating (0-100), CASOB ([12]; 250 g ai/ha) | Pre-emerge Herbicidal Activity, phytotoxicity rating (0-100), ABUTH ([13]; 63 g ai/ha) | Pre-emerge Herbicidal Activity, phytotoxicity rating (0-100), ABUTH ([13]; 250 g ai/ha) | phytotoxicity rating IPOHE ([18]; 63 g ai/ha) | phytotoxicity rating IPOHE ([18]; 250 g ai/ha) | phytotoxicity rating AMARE ([20]; 250 g ai/ha) | phytotoxicity rating ABUTH ([23]; 63 g ai/ha) | phytotoxicity rating ABUTH ([23]; 250 g ai/ha)
95: Pre-emerge phytotoxicity rating (0-100), crop damage, CORN ([4]; 250 g ai/ha)
45: phytotoxicity rating RICE ([3]; 63 g ai/ha) | Pre-emerge phytotoxicity rating (0-100), crop damage, CORN ([4]; 63 g ai/ha)
30: Pre-emerge Herbicidal Activity, phytotoxicity rating (0-100), CASOB ([12]; 63 g ai/ha) | phytotoxicity rating ECHCG ([24]; 250 g ai/ha)
85: Pre-emerge Herbicidal Activity, phytotoxicity rating (0-100), SORHA ([11]; 63 g ai/ha)
20: phytotoxicity rating DIGSA ([19]; 250 g ai/ha)
75: Pre-emerge phytotoxicity rating (0-100), crop damage, RICE ([5]; 63 g ai/ha)
70: phytotoxicity rating RICE ([3]; 250 g ai/ha) | Pre-emerge Herbicidal Activity, phytotoxicity rating (0-100), ECHCG ([14]; 63 g ai/ha) | phytotoxicity rating AMBEL ([15]; 63 g ai/ha) | phytotoxicity rating SETVI ([16]; 250 g ai/ha) | phytotoxicity rating CASOB ([22]; 63 g ai/ha)
0: phytotoxicity rating DIGSA ([19]; 63 g ai/ha) | phytotoxicity rating SORHA ([21]; 63 g ai/ha) | phytotoxicity rating ECHCG ([24]; 63 g ai/ha)
80: phytotoxicity rating CORN ([2]; 250 g ai/ha) | phytotoxicity rating CHEAL ([17]; 63 g ai/ha) | phytotoxicity rating CHEAL ([17]; 250 g ai/ha) | phytotoxicity rating AMARE ([20]; 63 g ai/ha)
15: phytotoxicity rating CORN ([2]; 63 g ai/ha)
90: Pre-emerge phytotoxicity rating (0-100), crop damage, RICE ([5]; 250 g ai/ha) | Pre-emerge Herbicidal Activity, phytotoxicity rating (0-100), AMBEL ([6]; 63 g ai/ha) | Pre-emerge Herbicidal Activity, phytotoxicity rating (0-100), DIGSA ([10]; 63 g ai/ha) | Pre-emerge Herbicidal Activity, phytotoxicity rating (0-100), ECHCG ([14]; 250 g ai/ha) | phytotoxicity rating AMBEL ([15]; 250 g ai/ha)
60: phytotoxicity rating SETVI ([16]; 63 g ai/ha) | phytotoxicity rating SORHA ([21]; 250 g ai/ha) | phytotoxicity rating CASOB ([22]; 250 g ai/ha)
